Reference: PubChem BioAssay AID624270 (Broad Institute, 2012)
Calls of active or inactive are those of the source. The rule behind the calls is not given here.

Tested on: not listed separately
Experiment: V cholerae BH1578 lux luminescence, light production inducers, dose response, confirmatory, 6 h (AID 624270)
Settings: V. cholerae BH1578 lux luminescence, 6 h; at 35 µM (top of the series)

Compound | activation (light induction)
CCn1nnc(NCc2ccc(C)cc2)n1 | 0.27% (inactive)
Cc1ccc(CC(=O)NC2CCCC2)cc1 | 15.8% (inactive)
CCn1c(CC(=O)Nc2cccc(Cl)c2Cl)nnc1SCCOc1ccc(OC)cc1 | 1.79% (inactive)
CCCn1nnnc1NCc1ccccc1Cl | 1.22% (inactive)

Tested on: V. cholerae BH1578 lux luminescence, 6 h
Experiment: as above
Settings: not given

Compound | AC50
Cc1c(Cl)cccc1-n1cnc(=O)c2ccccc21 | > 35000 nM (inactive)
O=C(Cc1ccc(-c2ccccc2)cc1)NC1CCCC1 | 104 nM
Cc1ccc(OCCNC(=O)c2cccc(C)c2)cc1 | 96 nM
COc1ccccc1NC(=O)COC(=O)c1cc2c(s1)CCC2 | 66.2 nM
CCCn1nnnc1NCc1ccc(N(CC)CC)cc1 | 54.8 nM
CCCn1nnnc1NCc1ccc(N2CCCC2)cc1 | 13.8 nM
Cc1ccc2cc3c(NC(=O)c4ccco4)nn(C)c3nc2c1 | 2870 nM
COc1ccccc1NC(=O)COC(=O)c1oc2ccccc2c1C | 1570 nM
O=C(Nc1nnc(-c2ccc3c(c2)OCCO3)o1)C1CCCCC1 | 1380 nM
CCn1nnnc1NCc1ccc(N2CCCC2)cc1 | 4.14 nM
CCC(C)NC(=O)Cc1ccc(-c2ccccc2)cc1 (stereo not given) | 1240 nM
COc1ccccc1NC(=O)COC(=O)c1ccc(C)cc1 | 397 nM
CCOc1ccc(Nc2ccc3nonc3c2[N+](=O)[O-])cc1 | 183 nM
COc1ccc(Cl)cc1NC(=O)COC(=O)c1ccc(C)o1 | 63.8 nM
O=c1ncn(-c2cccc(Cl)c2)c2ccccc12 | 1.29 nM
CCCn1nnnc1NCc1ccc(C(C)C)cc1 | 45.2 nM
